pIC50: −log10 of the molar value.
Key:
[1] = target: AII receptor (rat adrenal cortical microsomes); assay: Angiotensin II receptor binding (ligand-receptor binding assay; displacement of 3H-AII or 125I-AII); details: 2 nM 3H-AII or 0.05 nM 125I-AII, 1 hour, room temperature
Experimental: The hormone angiotensin II (AII) produces numerous biological responses, e.g., vasoconstriction, through stimulation of its receptors on cell membranes. For the purpose of identifying compounds such as AII antagonists which are capable of interacting with the AII receptor, a ligand-receptor binding assay was utilized for the initial screen. The assay was carried out according to the method described by Glossmann, et al., J. Biol. Chem., 249, 825 (1974), but with some modifications. The reaction mixture contained rat adrenal cortical microsomes (source of AII receptor) in Tris buffer and 2 nM of ^3 H-AII or 0.05 nM ^125 I-AII with or without potential AII antagonist. This mixture was incubated for 1 hour at room temperature and the reaction was subsequently terminated by rapid filtration and rinsing through glass micro-fibre filter. Receptor-bound ^3 H-AII or ^125 I-AII trapped in filter was quantitated by scintillation counting. The inhibitory concentration (IC50) of potential AII antagonist which gives 50% displacement of the total specifically bound ^3 H-AII or ^125 I-AII is a measure of the affinity of such compound for the AII receptor.

[2] = tested on: Renal Hypertensive Rats; assay: Antihypertensive effects in renal hypertensive rats, intravenous activity; type: in vivo, rat; details: awake renal artery-ligated rats; i.v.; 10 mg/kg (footnote)
Experimental: This procedure increases blood pressure by increasing renin production with consequent elevation of AII levels. […] Arterial blood pressure is continuously measured directly through a carotid artery cannula and recorded using a pressure transducer and a polygraph. Blood pressure levels after treatment are compared to pretreatment levels to determine the antihypertensive effects of the compounds which were tested.

[3] = tested on: effects of AII on the blood pressure of pithed rats; details: cited from earlier work
[4] = tested on: arterial pressure in mammals and man; details: cited from earlier work
[5] = tested on: renal vasoconstrictor effect of indomethacin and meclofenamate; details: dogs; cited from earlier work
[6] = tested on: renal vasoconstrictor effect of indomethacin; details: dogs with non-hypotensive hemorrhage; cited from earlier work

Row | SMILES | pIC50 [1] | Antihypertensive Effects in Renal Hypertensive Rats, Intravenous Activity [2] | other results
1 | CCCCc1nc(Cl)c(C=O)n1Cc1ccc2c(c1)C1c3ccccc3C2C(C(=O)O)C1C(=O)O (mixture of isomers) [Example 1, (±)-cis-2-[(2-n-butyl-4-chloro-5-formylimidazol-1-yl)methyl]-9,10-dihydro-9,10-ethanoanthracene-11,12-dicarboxylic acid, a mixture of endo and oxo isomers] | 5.96 | + (Significant decrease in blood pressure at 10 mg/kg or less) | 
2 | CCCCc1nc(Cl)c(C=O)n1Cc1ccc2c(c1)C1c3ccccc3C2C(C(=O)O)C1C(=O)O (mixture of isomers) [Example 2A, (±)-trans-2-[(2-n-butyl-4-chloro-5-formylimidazol-1-yl)methyl]-9,10-dihydro-9,10-ethanoanthracene-11,12-dicarboxylic acids, both diastereomers] | 6.66 | + (Significant decrease in blood pressure at 10 mg/kg or less) | 
3 | CCCCc1nc(Cl)c(C=O)n1Cc1ccc2c(c1)C1c3ccccc3C2C(C(=O)O)C1C(=O)O (mixture of isomers) [Example 2B, (±)-trans-2-[(2-n-butyl-4-chloro-5-formylimidazol-1-yl)methyl]-9,10-dihydro-9,10-ethanoanthracene-11,12-dicarboxylic acids, both diastereomers] | 6.49 | + (Significant decrease in blood pressure at 10 mg/kg or less) | 
4 | CCCCc1nc(Cl)c(C=O)n1Cc1ccc2c(c1)C1c3ccccc3C2C(c2nnn[nH]2)C1c1nnn[nH]1 (mixture of isomers) [Example 3, (±)-trans-2-[(2-n-butyl-4-chloro-5-formylimidazol-1-yl)methyl]-9,10-dihydro-9,10-ethano-11,12-bis (1H-tetrazol-5-yl)anthracene, both diastereomers] | 7.04 | + (Significant decrease in blood pressure at 10 mg/kg or less) | 
5 | CCCCc1nc(Sc2ccccc2)c(C=O)n1Cc1ccc2c(c1)C1c3ccccc3C2C(c2nnn[nH]2)C1c1nnn[nH]1 (mixture of isomers) [Example 4, (±)-trans-2-[(2-n-butyl-4-phenylthio-5-formylimidazol-l-yl)methyl]-9,10-dihydro-9,10-ethano-11,12-bis (1H-tetrazol-5-yl) anthracene: one diastereomer] | 6.34 | + (Significant decrease in blood pressure at 10 mg/kg or less) | 
6 | CNCC(=O)N[C@@H](CCCN=C(N)N)C(=O)N[C@H](C(=O)N[C@@H](Cc1ccc(O)cc1)C(=O)N[C@H](C(=O)N[C@@H](Cc1cnc[nH]1)C(=O)N1CCC[C@H]1C(=O)N[C@@H](C)C(=O)O)C(C)C)C(C)C [Saralasin] |  |  | block of the effects of AII on blood pressure of pithed rats [3]: blocks the effects of AII on the blood pressure of pithed rats; effect on arterial pressure when the (elevated) pressure is dependent on circulating AII ([4]; mammals and man, AII-dependent pressure): lower arterial pressure in mammals and man; oral effectiveness ([4]; oral doses): oral doses being ineffective; duration of action ([4]; parenteral administration): relatively short-lasting; effect when the pressure is not sustained by AII (agonistic character) ([4]; pressure not sustained by AII): generally elicits pressor effects; inhibition of renal vasoconstrictor effect of indomethacin and meclofenamate [5]: inhibit the renal vasoconstrictor effect of indomethacin and meclofenamate in dogs
7 | C[C@H](CS)C(=O)N1CCC[C@H]1C(=O)O [captopril] |  |  | reversal of renal vasoconstrictor effect of indomethacin [6]: reverse the renal vasoconstrictor effect of indomethacin in dogs
